This is an account of results in PubChem BioAssay (NCI).

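Assay format: 96-well plates, 48-hour exposure. The concentration for full growth arrest is given as TGI.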

Among the test systems are SW-620 colon; EKVX NSCLC; SK-MEL-2 melanoma; OVCAR-3 ovarian; HOP-62 NSCLC; SN12C renal; MALME-3M melanoma; U251 CNS; A498 renal.
Common to all, as to experiment: DTP human tumour cell line panel, 48 h

As to `Cc1nc(Nc2ccccc2)sc1C(=O)CC(=O)C(=O)NC12CC3CC(CC(C3)C1)C2`, the TGI – broadly, the concentration at which net growth stops – in the assay with SW-620 colon was greater than 100 µM; in the assay with EKVX NSCLC, 73 µM; in the assay on SK-MEL-2 melanoma, greater than 100 µM; in the assay with OVCAR-3 ovarian it was greater than 100 µM; in the assay on HOP-62 NSCLC, greater than 100 µM; in the assay on SN12C renal, greater than 100 µM. The TGI in the assay with MALME-3M melanoma and with U251 CNS was greater than 100 µM in each case.
In the case of `COc1cc(CC(C(=O)O)C(=O)O)c(OC)cc1CC(C(=O)O)C(=O)O`, the TGI with SW-620 colon, in the assay on EKVX NSCLC, in the assay on A498 renal, in the assay on OVCAR-3 ovarian, in the assay on HOP-62 NSCLC and in the assay with SN12C renal was greater than 100 µM each time. Moreover, the TGI with MALME-3M melanoma and in the assay with U251 CNS was greater than 100 µM throughout.
Take `O=C1C2ON3c4ccccc4C(=O)C3(c3ccccc3)C2C(=O)N1c1ccccc1` (configuration not stated): the TGI in the assay with SW-620 colon, in the assay on EKVX NSCLC, with A498 renal, in the assay on HOP-62 NSCLC, with SN12C renal and in the assay on MALME-3M melanoma was greater than 100 µM in each case. Further, in the assay on U251 CNS, the TGI was greater than 100 µM.
On to `CCCCCCCCCCCCCC(=O)OCC1OC(n2cc(F)c(=O)[nH]c2=O)C(N)C(OC(=O)CCCCCCCCCCCCC)C1O` (configuration not stated), for which the total growth inhibition concentration (TGI) in the assay on SW-620 colon, in the assay with EKVX NSCLC, with A498 renal, in the assay with SK-MEL-2 melanoma, in the assay with OVCAR-3 ovarian and with HOP-62 NSCLC was greater than 100 µM in each case. In addition, the TGI in the assay on SN12C renal, with MALME-3M melanoma and in the assay on U251 CNS was greater than 100 µM throughout.
With `OC1CCC[C@@H]1Sc1ccccc1` (some centres not stated), the TGI in the assay on SW-620 colon, in the assay on EKVX NSCLC, in the assay on A498 renal, with SK-MEL-2 melanoma, in the assay on OVCAR-3 ovarian and with HOP-62 NSCLC was greater than 100 µM throughout. The TGI in the assay on SN12C renal and in the assay on U251 CNS was greater than 100 µM each time.
For the molecule `CCCCCCCCCOC(=S)NCCCCC`, the TGI in the assay on SW-620 colon was greater than 100 µM; in the assay on EKVX NSCLC, 86.8 µM; with A498 renal, 59 µM; in the assay with HOP-62 NSCLC, 80.9 µM; in the assay with SN12C renal, 74 µM; in the assay with MALME-3M melanoma, 63.2 µM. Also, the TGI in the assay with U251 CNS amounted to 48.6 µM.
Regarding `Cn1nc(-c2ccccc2)c(C(=O)/C=C/c2ccc(F)cc2)c(N2CCOCC2)c1=O`, the TGI in the assay on SW-620 colon is 47.1 µM; in the assay on EKVX NSCLC, 75 µM; in the assay on A498 renal, 32 µM; in the assay on SN12C renal, greater than 100 µM; with U251 CNS, 31.4 µM.
As for `Cc1cc(C)nc(NS(=O)(=O)c2ccc(NC(=O)c3ccc(Cl)c4c(Nc5ccc(S(=O)(=O)N=C(N)N)cc5)c5ccccc5nc34)cc2)n1`, the TGI in the assay with SW-620 colon was 76 µM; with EKVX NSCLC it was greater than 100 µM; in the assay with A498 renal it was greater than 100 µM; in the assay with OVCAR-3 ovarian it was greater than 100 µM; in the assay with HOP-62 NSCLC, greater than 100 µM; with SN12C renal, 68.7 µM. In addition, the TGI with MALME-3M melanoma and in the assay with U251 CNS was greater than 100 µM each time.
Consider `CC1=NN(C(=O)c2ccc(Cl)cc2)C(=O)/C1=C/c1ccco1`, for which the TGI with SW-620 colon, with EKVX NSCLC, with A498 renal, with SK-MEL-2 melanoma, with OVCAR-3 ovarian and in the assay with HOP-62 NSCLC was greater than 100 µM throughout. Besides, the total growth inhibition concentration (TGI) in the assay on SN12C renal, in the assay on MALME-3M melanoma and in the assay with U251 CNS was greater than 100 µM in each case.
On to `CC(=O)O/N=C(Cl)/C(Cl)=N/OC(C)=O`, for which the TGI with SW-620 colon, with EKVX NSCLC, in the assay on A498 renal, in the assay on SK-MEL-2 melanoma, in the assay on HOP-62 NSCLC and in the assay on SN12C renal was greater than 100 µM each time. Also, the TGI in the assay with MALME-3M melanoma and with U251 CNS was greater than 100 µM in each case.
`COc1cc2c(cc1OC)c1c(OC)c(OC)cc3c1c1c2sc(=S)n1CC3`: the TGI in the assay on SW-620 colon, in the assay with EKVX NSCLC, in the assay with A498 renal, in the assay with SK-MEL-2 melanoma, in the assay on OVCAR-3 ovarian and in the assay on SN12C renal was greater than 100 µM in each case. The TGI in the assay with MALME-3M melanoma and with U251 CNS was greater than 100 µM throughout.
For `COc1cc(/C=C\c2ccc(OC(C)=O)cc2)cc(OC)c1OC`, the TGI is greater than 100 µM with SW-620 colon; greater than 100 µM with EKVX NSCLC; 78.4 µM in the assay with A498 renal; greater than 100 µM with SK-MEL-2 melanoma; greater than 100 µM in the assay on OVCAR-3 ovarian; greater than 100 µM in the assay on HOP-62 NSCLC. Besides, the TGI in the assay with SN12C renal, with MALME-3M melanoma and in the assay with U251 CNS was greater than 100 µM throughout.
Turning to `CCOC(=O)C1SC(=Nc2ccc(Cl)cc2C)N=C1C` (configuration not stated), the TGI in the assay on SW-620 colon stood at 53.7 µM; with EKVX NSCLC, 75.2 µM; in the assay with A498 renal, 98.1 µM; in the assay on SK-MEL-2 melanoma, 35.8 µM; with OVCAR-3 ovarian it was 48.2 µM; in the assay on HOP-62 NSCLC, 43.2 µM. In addition, the TGI in the assay with SN12C renal was determined as 41.4 µM; in the assay with MALME-3M melanoma, 39.2 µM; with U251 CNS it was 31.6 µM.
Regarding `CC(=N)N(C)O`, the TGI in the assay with EKVX NSCLC, in the assay on A498 renal, with SK-MEL-2 melanoma, with OVCAR-3 ovarian, with HOP-62 NSCLC and with SN12C renal was greater than 100 µM each time. In addition, the TGI in the assay on MALME-3M melanoma and in the assay with U251 CNS was greater than 100 µM throughout.
Turning to `NNC(=O)N/N=C1\C(=O)N(c2nccs2)C(=O)C(=O)C1c1nc2ccccc2s1` (configuration not stated), the total growth inhibition concentration (TGI) with SW-620 colon, with EKVX NSCLC, in the assay on SK-MEL-2 melanoma, with OVCAR-3 ovarian, with HOP-62 NSCLC and with SN12C renal was greater than 100 µM throughout. Also, the concentration for total growth inhibition (TGI) in the assay on MALME-3M melanoma and in the assay with U251 CNS was greater than 100 µM each time.
Consider `C/C(CCn1[nH]c(=O)ccc1=O)=N\Nc1ccc([N+](=O)[O-])cc1[N+](=O)[O-]`, for which the concentration for total growth inhibition (TGI) in the assay with SW-620 colon, in the assay with EKVX NSCLC, in the assay with A498 renal, with SK-MEL-2 melanoma, with OVCAR-3 ovarian and in the assay on HOP-62 NSCLC was greater than 100 µM in each case. For the same molecule, the TGI in the assay on SN12C renal and in the assay with MALME-3M melanoma was greater than 100 µM throughout.
